Where only a bound is given, the exact number is not on record here.

The target of one assay is T1, human GST-CLK1 (129-end) (Homo sapiens, UniProt P49759).
T1 construct: purified human GST-CLK1 (129-end, Signalchem) enzyme; GST; purchased Signalchem
Description: GST-CLK1 enzyme inhibition, ADP-Glo kinase assay. It is filed as biochemical. To be noted: ATP 10 uM. The gist of the method: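 ADP formation was read by ADP-Glo luminescence after 1 h at 25° C with 3 ng human GST-CLK1 (129-end), substrate and 10 uM ATP in Tris pH 7.4 buffer containing MgCl2, BSA and DTT. Inhibition relative to untreated solvent control gave IC50 (nM), run in triplicate.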
(ADP-Glo first removes unused ATP, then detects ADP through luciferase.)

The test system of a further assay is IL-6. Description: IL-6 secretion inhibition in LPS-treated THP-1 cells (ELISA). The format is cell-based. To be noted: Homo sapiens, compound 0.5 μM, LPS 500 ng/ml, 24 hours, read-out: THP1/IL6 (% inhib). The gist of the method: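 Human monocytic THP-1 cells were pre-cultured 16 h at 37° C., then treated with compound at 0.5 μM final, followed by LPS at 500 ng/ml final. After 24 h, IL-6 and TNF-α in culture supernatant were quantified by ELISA with absorbance read at 450 nm.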
(In general: In an ELISA, binding on a coated surface is turned into a signal by an enzyme label.)

The target in the next assay is LRRK2 (Homo sapiens, UniProt Q5S007). Description: LRRK2 enzyme inhibition, ADP-Glo kinase assay. It is filed as biochemical. Further details: purchased Invitrogen PR8604B. The gist of the method:
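ADP-Glo luminescence read after 2 h at 25° C, 10 μM ATP, 25 ng purified human LRRK2 and […] substrate in Tris-HCl pH7.4 buffer with MgCl2, BSA, DTT. Twelve final concentrations, 50 μM down to 0.000001024 μM; IC50 (nM) from inhibition relative to untreated solvent control.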

The target of another assay is LRRK2 (G2019S) (Homo sapiens, UniProt Q5S007, G2019S). Description: LRRK2 G2019S enzyme inhibition, ADP-Glo kinase assay. Also noted: purchased SignalChem L10-12GG. The format is biochemical. The gist of the method: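 Activity read as ADP-Glo luminescence, normalized to untreated solvent control, with IC50 (nM) fitted over 12 final compound levels (top 50 μM). Reaction: 2 h, 25° C, human LRRK2 G2019S 16 ng, ATP 25 μM, substrate 0.2 μg, in Tris-HCl pH 7.4 with MgCl2, BSA and DTT.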
LRRK2 (G2019S), sequence (Q5S007 970-2527 G2019S limits assumed): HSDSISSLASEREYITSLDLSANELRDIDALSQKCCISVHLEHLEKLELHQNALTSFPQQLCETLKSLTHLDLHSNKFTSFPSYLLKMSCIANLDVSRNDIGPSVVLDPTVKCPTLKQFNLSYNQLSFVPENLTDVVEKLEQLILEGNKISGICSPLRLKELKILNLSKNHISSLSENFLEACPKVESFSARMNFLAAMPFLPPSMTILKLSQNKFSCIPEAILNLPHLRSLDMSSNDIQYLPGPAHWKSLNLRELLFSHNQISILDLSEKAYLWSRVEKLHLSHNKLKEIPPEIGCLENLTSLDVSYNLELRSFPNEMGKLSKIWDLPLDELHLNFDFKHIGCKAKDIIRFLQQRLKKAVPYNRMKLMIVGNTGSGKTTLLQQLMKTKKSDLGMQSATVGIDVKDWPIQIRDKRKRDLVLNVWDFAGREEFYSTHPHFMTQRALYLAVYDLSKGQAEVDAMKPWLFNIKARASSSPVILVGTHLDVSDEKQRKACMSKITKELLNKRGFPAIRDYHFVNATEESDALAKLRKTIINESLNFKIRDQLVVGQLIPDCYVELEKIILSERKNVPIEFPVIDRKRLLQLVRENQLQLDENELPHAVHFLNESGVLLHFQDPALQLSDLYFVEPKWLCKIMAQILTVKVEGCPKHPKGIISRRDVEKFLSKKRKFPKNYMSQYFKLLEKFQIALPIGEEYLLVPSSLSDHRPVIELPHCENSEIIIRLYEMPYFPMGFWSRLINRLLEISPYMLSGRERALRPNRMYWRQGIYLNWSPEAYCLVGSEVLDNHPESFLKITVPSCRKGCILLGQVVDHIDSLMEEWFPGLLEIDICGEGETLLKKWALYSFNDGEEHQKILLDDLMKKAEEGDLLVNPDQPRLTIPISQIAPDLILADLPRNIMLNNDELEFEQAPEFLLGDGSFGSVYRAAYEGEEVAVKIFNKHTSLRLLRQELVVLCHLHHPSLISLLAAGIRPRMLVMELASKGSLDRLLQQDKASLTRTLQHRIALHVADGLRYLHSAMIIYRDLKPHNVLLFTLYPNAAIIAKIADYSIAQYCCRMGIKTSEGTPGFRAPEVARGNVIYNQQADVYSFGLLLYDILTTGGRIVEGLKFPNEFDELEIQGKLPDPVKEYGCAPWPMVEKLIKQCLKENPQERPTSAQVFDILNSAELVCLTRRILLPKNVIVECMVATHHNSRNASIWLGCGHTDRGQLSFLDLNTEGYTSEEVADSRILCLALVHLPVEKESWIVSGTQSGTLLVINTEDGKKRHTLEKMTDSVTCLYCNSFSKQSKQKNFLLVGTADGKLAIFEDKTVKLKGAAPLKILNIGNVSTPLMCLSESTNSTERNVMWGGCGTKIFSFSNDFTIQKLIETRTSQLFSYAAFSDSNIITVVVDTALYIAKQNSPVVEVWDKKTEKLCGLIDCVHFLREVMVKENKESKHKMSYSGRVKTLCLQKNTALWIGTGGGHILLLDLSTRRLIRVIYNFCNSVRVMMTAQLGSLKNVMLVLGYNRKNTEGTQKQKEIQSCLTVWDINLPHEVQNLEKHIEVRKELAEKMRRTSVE

LRRK2, sequence (Q5S007 970-2527 limits assumed): as the sequence (Q5S007 970-2527 G2019S limits assumed) above, with S1050G counted along it
T1 sequence (P49759 129-484 limits assumed): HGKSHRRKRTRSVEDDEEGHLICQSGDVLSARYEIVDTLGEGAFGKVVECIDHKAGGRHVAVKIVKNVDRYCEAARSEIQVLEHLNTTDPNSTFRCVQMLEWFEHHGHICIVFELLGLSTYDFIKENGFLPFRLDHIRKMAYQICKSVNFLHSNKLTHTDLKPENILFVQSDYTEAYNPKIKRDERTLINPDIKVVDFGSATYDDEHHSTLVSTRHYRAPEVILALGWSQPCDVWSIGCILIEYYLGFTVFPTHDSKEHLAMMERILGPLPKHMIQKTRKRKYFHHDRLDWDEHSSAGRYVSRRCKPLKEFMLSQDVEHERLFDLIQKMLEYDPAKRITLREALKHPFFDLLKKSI

Regarding `CCNc1cc(Nc2ccc(C(=O)N3CCC(N4C[C@@H]5C[C@H]4CO5)CC3)c3c2OCC3)nc2[nH]cc(C(F)(F)F)c12` [Example 105, (4-((1S,4S)-2-oxa-5-azabicyclo[2.2.1]heptan-5-yl)piperidin-1-yl)(7-((4-(ethylamino)-3-(trifluoromethyl)-1H-pyrrolo[2,3-b]pyridin-6-yl)amino)-2,3-dihydrobenzofuran-4-yl)methanone], the IC50 at human GST-CLK1 (129-end), against LRRK2 and against LRRK2 (G2019S) was below 100 nM in each case. Further, the inhibition at 0.5 µM in the assay on IL-6 is 33.2%.
As to `COc1cc(S(=O)(=O)N2CCC(N3CCOCC3)CC2)ccc1Nc1cc(NCCS(C)(=O)=O)c2c(C(F)(F)F)c[nH]c2n1` [Example 194, N^6-(2-methoxy-4-((4-morpholinopiperidin-1-yl)sulfonyl)phenyl)-N^4-(2-(methylsulfonyl)ethyl)-3-(trifluoromethyl)-1H-pyrrolo[2,3-b]pyridine-4,6-diamine], the IC50 against human GST-CLK1 (129-end), against LRRK2 and at LRRK2 (G2019S) was below 100 nM throughout. Besides, in the assay with IL-6, the inhibition at 0.5 µM worked out at 6.3%.
As for `COCCNc1cc(Nc2ccc(P3(=O)CCN(C4CC4)CC3)cc2OC)nc2[nH]cc(C(F)(F)F)c12` [Example 207, 1-cyclopropyl-4-(3-methoxy-4-((4-((2-methoxyethyl)amino)-3-(trifluoromethyl)-1H-pyrrolo[2,3-b]pyridin-6-yl)amino)phenyl)-1,4-azaphosphinane 4-oxide], the concentration for half-maximal inhibition (IC50) against human GST-CLK1 (129-end), at LRRK2 and against LRRK2 (G2019S) was 101 to 300 nM each time. In addition, the inhibition at 0.5 µM in the assay on IL-6 worked out at 41.7%.
With `CNc1cc(Nc2ccc(S(=O)(=O)N3CCC(N4CCOCC4)CC3)c3c2OCCO3)nc2[nH]cc(C(F)(F)F)c12` [Example 233, N^4-methyl-N^6-(8-((4-morpholinopiperidin-1-yl)sulfonyl)-2,3-dihydrobenzo [b] [1,4]dioxin-5-yl)-3-(trifluoromethyl)-1H-pyrrolo[2,3-b]pyridine-4,6-diamine], the IC50 against human GST-CLK1 (129-end), on LRRK2 and on LRRK2 (G2019S) was below 100 nM each time. The inhibition at 0.5 µM in the assay with IL-6 came out at 4.3%.
With `CNc1cc(Nc2ccc(C(=O)N3CCC(N4CCOCC4)CC3)c3c2OCC3)nc2[nH]cc(C(F)(F)F)c12` [Example 234, (7-((4-(methylamino)-3-(trifluoromethyl)-1H-pyrrolo[2,3-b]pyridin-6-yl)amino)-2,3-dihydrobenzofuran-4-yl)(4-morpholinopiperidin-1-yl)methanone], the IC50 on human GST-CLK1 (129-end), against LRRK2 and against LRRK2 (G2019S) was below 100 nM in each case. The inhibition at 0.5 µM with IL-6 came out at 50.9%.
Regarding `CNc1cc(Nc2ccc(S(=O)(=O)N3CCC(N4C[C@H]5C[C@@H]4CO5)CC3)cc2OC)nc2[nH]cc(C(F)(F)F)c12` [Example 243, N^6-(4-((4-((1R,4R)-2-oxa-5-azabicyclo[2.2.1]heptan-5-yl)piperidin-1-yl)sulfonyl)-2-methoxyphenyl)-N^4-methyl-3-(trifluoromethyl)-1H-pyrrolo[2,3-b]pyridine-4,6-diamine], the concentration for half-maximal inhibition (IC50) at human GST-CLK1 (129-end), against LRRK2 and against LRRK2 (G2019S) was below 100 nM each time. The inhibition at 0.5 µM in the assay on IL-6 came to 32.3%.

Source of the values: US12240844B2 (Voronoi, Inc., priority 2019, dated 2025).
